The record followed here is patent publication US10961198B2, “Farnesoid X receptor agonists and uses thereof” (Metacrine, Inc., priority 2017, dated 2021).

Where only a bound is given, the exact number is not on record here.

This assay has as its target hFXR (Homo sapiens (Human), UniProt Q96RI1). Briefly: In Vitro FXR Assay (TK). In kind it is cell-based. Particulars: CV-1 cells transfected with hFXR, hRXR, TK-ECRE-luc and pCMX-YFP; incubated 18 hrs; luminescence; maximum efficacy <25% of the Fexarmine control classified as '+'. How it is done:
Example B-1: In Vitro FXR Assay (TK)
CV-1 cells were seeded at a density of 2,000,000 cells in a T175 flask with DMEM+10% charcoal double-stripped FBS and incubated at 37° C. in 5% CO2 for 18 h (O/N).
After 18 h of incubation, the medium in the T175 flask was changed with fresh DMEM+10% charcoal super-stripped serum. In a polypropylene tube, 2500 μL OptiMEM (Life Technologies, Cat #31985-062) was combined with expression plasmids for hFXR, hRXR, TK-ECRE-luc and pCMX-YFP. The tube was then briefly vortexed and incubated at room temperature for 5 minutes. Transfection reagent (X-tremeGENE HP from Roche, Cat #06 366 236 001) was added to the OptiMEM/plasmid mixture vortexed and incubated at room temperature for 20 minutes. Following incubation, the transfection reagent/DNA mixture complex was added to cells in the T175 flask and the cells were incubated at 37° C. in 5% CO2 for 18 h (O/N).
Compounds were serially diluted in DMSO and added to transfected CV-1 cells. The cells were then incubated for 18 hrs. The next day cells were lysed and examined for luminescence.

Sequence of hFXR (Q96RI1 whole entry): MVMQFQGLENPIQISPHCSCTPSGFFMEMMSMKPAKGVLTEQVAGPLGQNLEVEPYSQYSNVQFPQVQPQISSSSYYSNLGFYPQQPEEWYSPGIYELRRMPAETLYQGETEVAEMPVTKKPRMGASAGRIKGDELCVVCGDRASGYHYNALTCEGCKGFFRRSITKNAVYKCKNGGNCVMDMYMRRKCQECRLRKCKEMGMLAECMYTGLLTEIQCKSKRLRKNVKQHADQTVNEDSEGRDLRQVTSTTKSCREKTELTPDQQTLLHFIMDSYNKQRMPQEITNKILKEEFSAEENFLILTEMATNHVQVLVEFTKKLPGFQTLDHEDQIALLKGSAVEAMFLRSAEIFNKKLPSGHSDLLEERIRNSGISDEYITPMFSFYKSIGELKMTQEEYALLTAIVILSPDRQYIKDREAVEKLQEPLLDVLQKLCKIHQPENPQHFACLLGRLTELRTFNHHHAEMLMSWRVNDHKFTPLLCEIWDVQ
Sequence of hFXR (P19793 whole entry partner): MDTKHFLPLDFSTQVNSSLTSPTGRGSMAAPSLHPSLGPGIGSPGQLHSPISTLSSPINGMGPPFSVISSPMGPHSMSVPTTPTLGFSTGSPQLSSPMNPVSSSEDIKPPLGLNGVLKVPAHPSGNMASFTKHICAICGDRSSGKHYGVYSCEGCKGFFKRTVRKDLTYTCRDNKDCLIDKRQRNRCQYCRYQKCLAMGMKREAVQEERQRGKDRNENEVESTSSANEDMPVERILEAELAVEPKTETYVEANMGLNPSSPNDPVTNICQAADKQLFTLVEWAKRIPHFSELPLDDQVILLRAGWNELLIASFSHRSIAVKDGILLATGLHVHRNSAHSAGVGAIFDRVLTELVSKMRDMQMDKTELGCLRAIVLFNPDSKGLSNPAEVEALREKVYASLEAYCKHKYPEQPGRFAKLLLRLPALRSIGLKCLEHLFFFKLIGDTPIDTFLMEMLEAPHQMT

As a reminder, the EC50 is the midpoint of the concentration-response curve. The low end stands for a more potent agent, the high end for a less potent agent. In turn, `Cc1cc([C@H]2CC[C@H](CN(c3cccc(-c4cnn(C5CC5)c4)c3)C(=O)[C@H]3CC[C@H](O)CC3)CC2)ccc1O` [Compound 8, trans-N-(3-(1-Cyclopropyl-1H-pyrazol-4-yl)phenyl)-4-hydroxy-N-((trans-4-(4-hydroxy-3-methylphenyl)cyclohexyl)methyl)cyclohexanecarboxamide] registered a concentration for a half-maximal effect (EC50) of 0.25 to 1 µM.
The result for `CCn1cc(-c2cccc(N(C[C@H]3CC[C@H](c4ccc(OC)c(C)c4)CC3)C(=O)[C@H]3CC[C@H](O)CC3)c2)cn1` [Compound 2.02, trans-N-(3-(1-Ethyl-1H-pyrazol-4-yl)phenyl)-4-hydroxy-N-((trans-4-(4-methoxy-3-methylphenyl)cyclohexyl)methyl)cyclohexanecarboxamide] reads at most 0.25 µM; that for `COc1ccc([C@H]2CC[C@H](CN(c3cccc(-c4cnn(C5CC5)c4)c3)C(=O)[C@H]3CC[C@H](O)CC3)CC2)cc1Cl` [Compound 5.03, trans-N-((trans-4-(3-Chloro-4-methoxyphenyl)cyclohexyl)methyl)-N-(3-(1-cyclopropyl-1H-pyrazol-4-yl)phenyl)-4-hydroxycyclohexanecarboxamide], at most 0.25 µM.
The result for `COc1ccc(C23CCC(CN(c4cccc(-c5cnn(C(C)C)c5)c4)C(=O)[C@H]4CC[C@H](O)CC4)(CC2)CC3)cc1C` [Compound 6.02, trans-4-Hydroxy-N-(3-(1-isopropyl-1H-pyrazol-4-yl)phenyl)-N-((4-(4-methoxy-3-methylphenyl)bicyclo[2.2.2]octan-1-yl)methyl)cyclohexanecarboxamide] reads at most 0.25 µM; that for `COc1ccc([C@H]2CC[C@H](CN(c3cccc(-c4cnn(C5COC5)c4)c3)C(=O)[C@H]3CC[C@H](O)CC3)CC2)cc1C` [Compound 3.09, trans-4-Hydroxy-N-((trans-4-(4-methoxy-3-methylphenyl)cyclohexyl)methyl)-N-(3-(1-(oxetan-3-yl)-1H-pyrazol-4-yl)phenyl)cyclohexanecarboxamide], at most 0.25 µM.
For `COc1ccc([C@H]2CC[C@H](CN(c3cccc(-c4cnn(C5CC5)c4)c3)C(=O)[C@H]3CC[C@H](O)CC3)CC2)cc1C#N` [Compound 2.04, trans-N-((trans-4-(3-Cyano-4-methoxyphenyl)cyclohexyl)methyl)-N-(3-(1-cyclopropyl-1H-pyrazol-4-yl)phenyl)-4-hydroxycyclohexanecarboxamide], the EC50 was at most 0.25 µM.
Then `CCC(C)n1cc(-c2cccc(N(C[C@H]3CC[C@H](c4ccc(OC)c(C)c4)CC3)C(=O)[C@H]3CC[C@H](O)CC3)c2)cn1` (stereo partly drawn) [Compound 3.13, trans-N-(3-(1-(sec-Butyl)-1H-pyrazol-4-yl)phenyl)-4-hydroxy-N-((trans-4-(4-methoxy-3-methylphenyl)cyclohexyl)methyl)cyclohexanecarboxamide], with at most 0.25 µM; and `COc1ccc([C@H]2CC[C@H](CN(C(=O)C3CCCCC3)c3cccc(-c4cnn(C5CC5)c4)c3)CC2)cc1C` [Compound 5.24, N-(3-(1-Cyclopropyl-1H-pyrazol-4-yl)phenyl)-N-((trans-4-(4-methoxy-3-methylphenyl)cyclohexyl)methyl)cyclohexanecarboxamide], with at most 0.25 µM.
The result for `CCCn1cc(-c2cccc(N(C[C@H]3CC[C@H](c4ccc(OC)c(C)c4)CC3)C(=O)[C@H]3CC[C@H](O)CC3)c2)cn1` [Compound 3.04, trans-4-Hydroxy-N-((trans-4-(4-methoxy-3-methylphenyl)cyclohexyl)methyl)-N-(3-(1-propyl-1H-pyrazol-4-yl)phenyl)cyclohexanecarboxamide] reads at most 0.25 µM; that for `COc1ccc([C@H]2CC[C@H](CN(c3cccc(-c4cnn(C)c4)c3)C(=O)[C@H]3CC[C@H](O)CC3)CC2)cc1C` [Compound 2.01, trans-4-Hydroxy-N-((trans-4-(4-methoxy-3-methylphenyl)cyclohexyl)methyl)-N-(3-(1-methyl-1H-pyrazol-4-yl)phenyl)cyclohexanecarboxamide], at most 0.25 µM.
The result for `COc1ccc([C@H]2CC[C@H](CN(c3cc(-c4cnn(C5CC5)c4)ccn3)C(=O)[C@H]3CC[C@H](O)CC3)CC2)nc1C#N` [Compound 5.22, trans-N-((trans-4-(6-Cyano-5-methoxypyridin-2-yl)cyclohexyl)methyl)-N-(4-(1-cyclopropyl-1H-pyrazol-4-yl)pyridin-2-yl)-4-hydroxycyclohexanecarboxamide] reads 0.25 to 1 µM.
In the case of `Cn1ccc2cc([C@H]3CC[C@H](CN(c4cccc(-c5cnn(C6CC6)c5)c4)C(=O)[C@H]4CC[C@H](O)CC4)CC3)ncc21` [Compound 5.21, trans-N-(3-(1-Cyclopropyl-1H-pyrazol-4-yl)phenyl)-4-hydroxy-N-((trans-4-(1-methyl-1H-pyrrolo[2,3-c]pyridin-5-yl)cyclohexyl)methyl)cyclohexanecarboxamide], the EC50 was at least 1 µM.
The result for `COc1ccc(C23CCC(CN(c4cccc(-c5cnn(C6CC6)c5)c4)C(=O)[C@H]4CC[C@H](O)CC4)(CC2)CC3)cc1C` [Compound 6, trans-N-(3-(1-Cyclopropyl-1H-pyrazol-4-yl)phenyl)-4-hydroxy-N-((4-(4-methoxy-3-methylphenyl)bicyclo[2.2.2]octan-1-yl)methyl)cyclohexanecarboxamide] reads at most 0.25 µM; that for `COc1ncc([C@H]2CC[C@H](CN(c3cc(-c4cnn(C(C)C)c4)ccn3)C(=O)[C@H]3CC[C@H](O)CC3)CC2)cc1C` [Compound 5.29, trans-4-Hydroxy-N-(4-(1-Isopropyl-1H-pyrazol-4-yl)pyridin-2-yl)-N-((trans-4-(6-methoxy-5-methylpyridin-3-yl)cyclohexyl)methyl)cyclohexanecarboxamide], at most 0.25 µM.
Then `COc1ccc([C@H]2CC[C@H](CN(c3cccc(-n4cc(C)cn4)c3)C(=O)[C@H]3CC[C@H](O)CC3)CC2)cc1C` [Compound 1, trans-4-Hydroxy-N-((trans-4-(4-methoxy-3-methylphenyl)cyclohexyl)methyl)-N-(3-(4-methyl-1H-pyrazol-1-yl)phenyl)cyclohexanecarboxamide], with 0.25 to 1 µM.
Then `CN(C)c1ccc(C23CCC(CN(c4cccc(-c5cnn(C6CC6)c5)c4)C(=O)[C@H]4CC[C@H](O)CC4)(CC2)CC3)cn1` [Compound 6.01, trans-N-(3-(1-Cyclopropyl-1H-pyrazol-4-yl)phenyl)-N-((4-(6-(dimethylamino)pyridin-3-yl)bicyclo[2.2.2]octan-1-yl)methyl)-4-hydroxycyclohexanecarboxamide], with at most 0.25 µM.
For `COc1ccc(C23CCC(CN(c4cccc(-c5cnn(C6CC6)c5)c4)C(=O)[C@H]4CC[C@H](N)CC4)(CC2)CC3)cc1C` [Compound 7.01, trans-4-Amino-N-(3-(1-cyclopropyl-1H-pyrazol-4-yl)phenyl)-N-((4-(4-methoxy-3-methylphenyl)bicyclo[2.2.2]octan-1-yl)methyl)cyclohexanecarboxamide], the concentration giving a half-maximal response (EC50) lay within 0.25 to 1 µM.
The result for `COc1ccc(C2CCC(CN(c3cccc(-c4cnn(C5CC5)c4)c3)C(=O)[C@H]3CC[C@@H](O)CC3)CC2)cc1C` (stereo partly drawn) [Compound 5.25, cis-N-(3-(1-Cyclopropyl-1H-pyrazol-4-yl)phenyl)-4-hydroxy-N-((4-(4-methoxy-3-methylphenyl)cyclohexyl)methyl)cyclohexanecarboxamide] reads at most 0.25 µM; that for `COc1ccc([C@H]2CC[C@H](CN(c3cccc(-c4cnn(CCF)c4)c3)C(=O)[C@H]3CC[C@H](O)CC3)CC2)cc1C` [Compound 3.12, trans-N-(3-(1-(2-Fluoroethyl)-1H-pyrazol-4-yl)phenyl)-4-hydroxy-N-((trans-4-(4-methoxy-3-methylphenyl)cyclohexyl)methyl)cyclohexanecarboxamide], at most 0.25 µM; that for `Cn1nc(F)c2cc([C@H]3CC[C@H](CN(c4cccc(-c5cnn(C6CC6)c5)c4)C(=O)[C@H]4CC[C@H](O)CC4)CC3)ccc21` [Compound 5, trans-N-(3-(1-Cyclopropyl-1H-pyrazol-4-yl)phenyl)-N-((trans-4-(3-fluoro-1-methyl-1H-indazol-5-yl)cyclohexyl)methyl)-4-hydroxycyclohexanecarboxamide], at most 0.25 µM.
The result for `COc1ccc([C@H]2CC[C@H](CN(c3cc(-c4cnn(C(C)C)c4)ccn3)C(=O)[C@H]3CC[C@H](O)CC3)CC2)cc1C` [Compound 5.11, trans-4-Hydroxy-N-(4-(1-isopropyl-1H-pyrazol-4-yl)pyridin-2-yl)-N-((trans-4-(4-methoxy-3-methylphenyl)cyclohexyl)methyl)cyclohexanecarboxamide] reads at most 0.25 µM; that for `COc1ccc([C@H]2CC[C@H](CN(c3cc(-c4cnn(C(C)C)c4)ccn3)C(=O)[C@H]3CC[C@H](O)CC3)CC2)cc1C#N` [Compound 5.14, trans-N-((trans-4-(3-Cyano-4-methoxyphenyl)cyclohexyl)methyl)-4-hydroxy-N-(4-(1-isopropyl-1H-pyrazol-4-yl)pyridin-2-yl)cyclohexanecarboxamide], at most 0.25 µM.
`COc1ccc([C@H]2CC[C@H](CN(c3cc(-c4cnn(C(C)C)c4)ccn3)C(=O)[C@H]3CC[C@H](O)CC3)CC2)nc1C#N` [Compound 5.20, trans-N-((trans-4-(6-Cyano-5-methoxypyridin-2-yl)cyclohexyl)methyl)-4-hydroxy-N-(4-(1-isopropyl-1H-pyrazol-4-yl)pyridin-2-yl)cyclohexanecarboxamide]: the EC50 was 0.25 to 1 µM.
